According to PubChem BioAssay AID2060355 (Molecular Pharmacology Branch, DTP, NCI, 2025):

System: 485368-065-R4-J2-PDC spheroids with HUVEC/MSC, viability
Assay: Anticancer human tumor 485368-065-R4-J2-PDC patient-derived pancreatic carcinoma cell line growth inhibition [TAK]
Details: for IC50: curve of first compound; for viability, T/C: stronger effect = lower value
Procedure, shortened: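 Tumor cells were grown as spheroids with HUVEC and hMSC (60:25:15) and treated with targeted agents combined with TAK-243 or ipatasertib. Drugs were tested in half-log steps down from near the clinical Cmax, or from 10 microM where Cmax was unknown.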
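Also: spheroids exposed to compounds for seven days before readout.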
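For viability, T/C in this document: 100% = DMSO vehicle control wells.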

Work on CC(C)CC(NC(=O)CNC(=O)c1cc(Cl)ccc1Cl)B1OC(=O)CC(CC(=O)O)(C(=O)O)O1 (stereo not given) + CC(C)NCC(C(=O)N1CCN(c2ncnc3c2C(C)CC3O)CC1)c1ccc(Cl)cc1 yielded an IC50 (second compound 0.3 µM) of 37.7 nM, an IC50 (second compound 0.949 µM) of 31.3 nM and an IC50 (second compound 3 µM) of 25.6 nM. It also gave an IC50 (second compound 9.49 µM) of 24.8 nM, an IC50 (second compound 30 µM) of 19.7 nM and a viability, T/C (second compound 0.3 µM, first compound 0.000316 µM) of 89.7%. It also gave a viability, T/C (second compound 0.3 µM, first compound 0.001 µM) of 93.9%, a viability, T/C (second compound 0.3 µM, first compound 0.00316 µM) of 98.7% and a viability, T/C (second compound 0.3 µM, first compound 0.01 µM) of 106%. For the same compound, the viability, T/C (second compound 0.3 µM, first compound 0.0316 µM) was 56.7%, the viability, T/C (second compound 0.3 µM, first compound 0.1 µM) was 12.8% and the viability, T/C (second compound 0.949 µM, first compound 0.000316 µM) was 98.4%. The viability, T/C (second compound 0.949 µM, first compound 0.001 µM) was 99%, the viability, T/C (second compound 0.949 µM, first compound 0.00316 µM) was 97.5% and the viability, T/C (second compound 0.949 µM, first compound 0.01 µM) was 106%. It also gave a viability, T/C (second compound 0.949 µM, first compound 0.0316 µM) of 49.6%, a viability, T/C (second compound 0.949 µM, first compound 0.1 µM) of 12.5% and a viability, T/C (second compound 3 µM, first compound 0.000316 µM) of 103%. It also gave a viability, T/C (second compound 3 µM, first compound 0.001 µM) of 99.6%, a viability, T/C (second compound 3 µM, first compound 0.00316 µM) of 99.2% and a viability, T/C (second compound 3 µM, first compound 0.01 µM) of 92.6%. It also gave a viability, T/C (second compound 3 µM, first compound 0.0316 µM) of 40.5%, a viability, T/C (second compound 3 µM, first compound 0.1 µM) of 9.51% and a viability, T/C (second compound 9.49 µM, first compound 0.000316 µM) of 94.7%. It also gave a viability, T/C (second compound 9.49 µM, first compound 0.001 µM) of 87.3%, a viability, T/C (second compound 9.49 µM, first compound 0.00316 µM) of 89.5% and a viability, T/C (second compound 9.49 µM, first compound 0.01 µM) of 92.6%. It also gave a viability, T/C (second compound 9.49 µM, first compound 0.0316 µM) of 39%, a viability, T/C (second compound 9.49 µM, first compound 0.1 µM) of 9.49% and a viability, T/C (second compound 30 µM, first compound 0.000316 µM) of 76.9%. It also gave a viability, T/C (second compound 30 µM, first compound 0.001 µM) of 80.2%, a viability, T/C (second compound 30 µM, first compound 0.00316 µM) of 81% and a viability, T/C (second compound 30 µM, first compound 0.01 µM) of 76.7%. For the same compound, the viability, T/C (second compound 30 µM, first compound 0.0316 µM) was 31.3% and the viability, T/C (second compound 30 µM, first compound 0.1 µM) was 7.82%.
